These are literature values, as cited in paper PMC9692552, “Activity and Synergy of Cu-ATCUN Antimicrobial Peptides” (International Journal of Molecular Sciences, 2022).

For series [1], the system named is A. baumannii BAA747. As to conditions: previously reported data, ref [8]; cited from earlier work. The text has this:
(§1) Table 2 MIC Values (µM) for SMAP-29 Derivatives. * Previously reported data from reference r comparison. | column: OV3 *; Cu-1 *; Cu-2 *; Cu-3 *; Cu-4 * || Table 4 MIC values for antimicrobial peptides utilized in this study. MIC values for a variety of the presented peptides have been previously determined in alternative conditions; values here are the result of experimental efforts to determine MICs under the conditions utilized for further study of FIC potential, with the exception of Sub5 and Sub5-01, previously characterized in our laboratory, w | column: Sub5; Sub5-01

The subject of series [2] is E. coli 25922. As to conditions: previously reported data, ref [8]; cited from earlier work.
From the text: as §1

The subject of series [3] is E. faecium 700221 (VRE). As to conditions: previously reported data, ref [8]; cited from earlier work.
From the text: as §1

The test system of series [4] is K. pneumoniae 700603. The settings on record: previously reported data, ref [8]; cited from earlier work.
From the text: as §1

For series [5], the system named is P. aeruginosa 27583. As to conditions: P. aeruginosa (27583); previously reported data; ref [8]; cited from earlier work.
From the text: as §1

In series [6] the test system is S. aureus 43300 (MRSA). As to conditions: previously reported data, ref [8]; cited from earlier work.
From the text: as §1

The conditions of series [7]: in SDS, as previously reported; ref [8]; cited from earlier work. The text has this: Table 1 SMAP-29 derivatives used in this study and others with sequences and defining characteristics. ^a Estimated charge calculated from Innovagen’s peptide property calculator. ^b The helical activity of peptides as previously reported in the referenced manuscripts. ND: not determined. | column: % Helical (SDS) ^b

One may read the MIC as the smallest concentration in the dilution series that meets the test's criterion for growth inhibition. For “GGHIRRIIRKIIHIIKKGGC-NH2 [Cu-4, ATCUN-OV3 derivative from the authors' earlier work]”, the MIC in series [1] is given as 10.7 µM; in series [2], 1.3 µM; in series [3] it was 3.3 µM; in series [4], 8 µM; in series [5] it was 4 µM; in series [6], 1.5 µM. The “% Helical (SDS)” value in series [7] was 64% [8].
“IRRIIRKIIHIIKK-NH2 [OV3, SMAP-29 derivative, parental peptide of Cu-1 to Cu-4]”: the MIC is on record as 1 µM in series [1]; over 16 µM in series [2]; 16 µM in series [3]; over 16 µM in series [4]; 16 µM in series [5]; over 16 µM in series [6]. Also, the “% Helical (SDS)” value in series [7] is 38% [8].
